The structures appear in SMILES notation.

We go through two molecules from publication PMC3340406, “Molecular and Functional Characterization of Novel Fructosyltransferases and Invertases from Agave tequilana” (PLoS ONE, 2012).

What all share (assay type): biochemical
In assay [1] the target is T1, AtqCwinv-1 (Agave tequilana, UniProt I1ZBQ2).
T1 construct: gene Cwinv1; mature region, signal peptide (24 aa) removed, His-tagged, secreted from Pichia pastoris X-33 (pPICZalphaA); full length 575 aa; about 75 kDa on gel
T1 sequence (I1ZBQ2 25-575): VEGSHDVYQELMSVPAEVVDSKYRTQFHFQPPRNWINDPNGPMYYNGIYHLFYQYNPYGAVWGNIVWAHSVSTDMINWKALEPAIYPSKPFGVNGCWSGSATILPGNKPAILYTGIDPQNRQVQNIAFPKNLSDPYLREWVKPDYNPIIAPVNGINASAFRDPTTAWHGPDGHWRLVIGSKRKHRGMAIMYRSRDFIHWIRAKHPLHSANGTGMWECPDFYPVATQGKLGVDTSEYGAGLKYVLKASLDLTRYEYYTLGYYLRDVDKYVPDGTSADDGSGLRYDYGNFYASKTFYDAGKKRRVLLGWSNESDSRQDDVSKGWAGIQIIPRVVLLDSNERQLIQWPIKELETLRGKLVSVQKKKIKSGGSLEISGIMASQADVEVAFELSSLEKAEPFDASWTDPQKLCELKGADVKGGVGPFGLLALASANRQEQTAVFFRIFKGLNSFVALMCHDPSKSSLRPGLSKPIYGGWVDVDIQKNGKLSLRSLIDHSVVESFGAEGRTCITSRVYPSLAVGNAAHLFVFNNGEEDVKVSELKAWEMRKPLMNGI
Kind of assay: HPAEC-PAD, exohydrolase activity. To be noted: 100 mM 1-kestose, 50 mM sodium acetate pH 4.3, 30 °C; 10 µg affinity purified protein.

A further assay has as its target T2, Atq6G-FFT-1 (Agave tequilana, UniProt I1ZBQ0).
T2 construct: gene FFT1; mature region, signal peptide (34 aa) removed, His-tagged, secreted from Pichia pastoris X-33 (pPICZalphaA); full length 627 aa; about 80 kDa on gel
T2 sequence (I1ZBQ0 35-627): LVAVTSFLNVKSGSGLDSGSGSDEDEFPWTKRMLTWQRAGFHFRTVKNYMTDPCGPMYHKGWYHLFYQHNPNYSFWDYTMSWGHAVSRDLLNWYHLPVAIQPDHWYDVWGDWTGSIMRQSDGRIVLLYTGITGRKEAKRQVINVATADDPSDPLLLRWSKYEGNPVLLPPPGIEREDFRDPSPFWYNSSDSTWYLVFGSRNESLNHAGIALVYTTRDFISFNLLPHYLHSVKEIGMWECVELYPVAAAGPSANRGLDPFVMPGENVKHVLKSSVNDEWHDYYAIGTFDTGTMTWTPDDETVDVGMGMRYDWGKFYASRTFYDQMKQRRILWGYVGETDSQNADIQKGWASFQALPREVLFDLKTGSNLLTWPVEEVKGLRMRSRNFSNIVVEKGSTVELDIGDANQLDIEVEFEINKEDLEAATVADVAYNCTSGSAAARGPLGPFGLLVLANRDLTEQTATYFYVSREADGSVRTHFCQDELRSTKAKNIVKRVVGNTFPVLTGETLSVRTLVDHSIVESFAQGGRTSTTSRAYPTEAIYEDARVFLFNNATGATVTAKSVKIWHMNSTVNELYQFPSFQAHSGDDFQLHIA
Put plainly: HPAEC-PAD product analysis. To be noted: 50 mM 1-kestose (stock contains some sucrose and nystose), 50 mM sodium acetate pH 5.5, 30 °C; 20 µg total protein extract.

Assay [2] addresses T1, AtqCwinv-1. Kind of assay: TLC and HPAEC-PAD, sucrose hydrolysis. To be noted: 100 mM sucrose, 50 mM sodium acetate pH 4.3, 30 °C; 10 µg affinity purified protein.

As for `OC[C@H]1O[C@@](CO)(OC[C@@]2(O[C@H]3O[C@H](CO)[C@@H](O)[C@H](O)[C@H]3O)O[C@H](CO)[C@@H](O)[C@@H]2O)[C@@H](O)[C@@H]1O` [1-kestose], the “HPAEC-PAD, exohydrolase activity” value at AtqCwinv-1 [1] is listed as “some exohydrolytic activity occurred when sucrose was replaced by 1-kestose as substrate”. Also, on Atq6G-FFT-1, the HPAEC-PAD product analysis was 1-kestose was used as substrate no neokestose was produced but a tetrasaccharide 4c molecule. For the molecule `OC[C@H]1O[C@@](CO)(O[C@H]2O[C@H](CO)[C@@H](O)[C@H](O)[C@H]2O)[C@@H](O)[C@@H]1O` [sucrose], the “TLC and HPAEC-PAD, sucrose hydrolysis” value on AtqCwinv-1 [2] was “AtqCwinv-1 produced fructose and glucose when incubated with sucrose as the sole substrate”.
